Here are results for seven compounds from patent US11667675B2, “MASP inhibitory compounds and uses thereof” (Bayer Aktiengesellschaft, priority 2019, dated 2023).

The target in one assay is T1, rat MASP2 (Rattus norvegicus, UniProt Q9JJS8).
T1 construct: Ig-kappa secretion signal (N, cleaved yes); made in house; host or cells: HEK293 (ATCC No. CRL-1573)
The assay can be described thus: Biochemical rat MASP2 assay (FRET substrate). To be noted: average IC50; recombinant rat MASP2, FRET substrate. An excerpt: 4. Biochemical Rat MASP-1 and MASP-2 Assay
4.1 Recombinant Expression and Protein Production of Recombinant Human and Rat MASP1 and MASP2 Active Proteases.
The MASP1 or MASP2 expression vectors were transfected into the HEK293 (ATCC No. CRL-1573) cell line using Lipofectamine LTX® Reagent (Thermo-Fischer), as described by the manufacturer. The mature form of the recombinant rat MASP1 and MASP2 proteases were secreted into the culture medium. The MASP1 and MASP2 proteins were purified from the conditioned media by affinity chromatography on Ni-NTA Superflow resin (Qiagen) as described by the manufacturer.
4.3 Biochemical Rat MASP2 Assay.
(§1) Recombinant rat MASP2 enzyme produced in the HEK 293 cells was diluted in the reaction buffer (50 mM HEPES pH 8,0; 100 mM NaCl; 0.01% CHAPS; 0.5 mM Gluthathione) to the concentration of 20 nM and 25 μl was transferred into each single well of 384-well white microtiter plate (Greiner Bio One 781075). 1 μl of the inhibitor compound solution (dissolved in DMSO, at the corresponding concentration) or pure DMSO as a control was added to the same wells. The enzymatic reaction was initiated by addition of 25 μl of 30 μM solution of the FRET substrate Abz-IEGRTSED-(Lys)Dnp-NH2 (SEQ ID NO: 9); (ABZ—2-aminobenzoyl; DNP_2,4-dinitrophenyl; custom synthesis by Jerini Peptide Technologies, Berlin) in the reaction buffer. The microtiter plate was incubated for 60-120 min at the temperature of 32 C. The increase of fluorescence intensity was measured in appropriate fluorescence plate reader (e.g. TECAN Ultra) using excitation wavelength of 320 nm and emission wavelength of 420 nm. IC50 values were calculated from percentage of inhibition of rat MASP2 activity as a function of test compound concentration.

A further assay concerns the target T2, human MASP2 (Homo sapiens, UniProt O00187).
T2 construct: Ig-kappa secretion signal (N, cleaved yes); made in house; host or cells: HEK293 (ATCC No. CRL-1573)
The assay can be described thus: Biochemical human MASP2 assay (FRET substrate). To be noted: average IC50.
From the text: (§2) 2.1 Recombinant Expression and Protein Production of Recombinant Human MASP1 and MASP2 Active Proteases.
(§3) The MASP1 or MASP2 expression vectors were transfected into the HEK293 (ATCC No. CRL-1573) cell line using Lipofectamine LTX® Reagent (Thermo-Fischer), as described by the manufacturer. […] The MASP1 and MASP2 proteins were purified from the conditioned media by affinity chromatography on Ni-NTA Superflow resin (Qiagen) as described by the manufacturer.
2.3 Biochemical Human MASP2 Assay
as §1, with “Recombinant human” for “Recombinant rat”, “wells. […]” for “wells. The enzymatic reaction was initiated by addition of 25 μl of 30 μM solution of the FRET substrate Abz-IEGRTSED-(Lys)Dnp-NH2 (SEQ ID NO: 9); (ABZ—2-aminobenzoyl; DNP_2,4-dinitrophenyl; custom synthesis by Jerini Peptide Technologies, Berlin) in the reaction buffer.”, “of 340” for “of 320”, “of 490” for “of 420”, “of human” for “of rat”

Another assay concerns the target T3, human MASP1 (Homo sapiens, UniProt P48740).
T3 construct: Ig-kappa secretion signal (N, cleaved yes); made in house; host or cells: HEK293 (ATCC No. CRL-1573)
T3 sequence (P48740 297-448): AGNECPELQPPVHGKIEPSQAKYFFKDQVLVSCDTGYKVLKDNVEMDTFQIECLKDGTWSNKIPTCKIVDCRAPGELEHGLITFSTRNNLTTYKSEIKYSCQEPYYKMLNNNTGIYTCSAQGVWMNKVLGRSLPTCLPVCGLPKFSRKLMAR
T3 sequence (P48740 449-699): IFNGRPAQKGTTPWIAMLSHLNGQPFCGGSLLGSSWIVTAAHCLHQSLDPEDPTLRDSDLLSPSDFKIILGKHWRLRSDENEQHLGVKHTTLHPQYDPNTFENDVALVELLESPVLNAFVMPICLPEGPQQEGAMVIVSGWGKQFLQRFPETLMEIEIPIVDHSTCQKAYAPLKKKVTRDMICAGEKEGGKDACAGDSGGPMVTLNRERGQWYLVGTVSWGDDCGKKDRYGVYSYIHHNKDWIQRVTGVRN
Description: Biochemical human MASP1 assay (FRET substrate). Particulars: average IC50.
From the text: as §2, §3
2.2 Biochemical Human MASP1 Assay
as §1, with “human MASP1” for “rat MASP2”, “The enzymatic reaction was initiated by addition of 25 μl of 30 μM solution of the FRET substrate Abz-IEGRTSED-(Lys)Dnp-NH2 (SEQ ID NO: 9); (ABZ—2-aminobenzoyl; DNP_2,4-dinitrophenyl; custom synthesis by Jerini Peptide Technologies, Berlin) in the reaction buffer.” left out

Another assay has as its system Human C3-[…]. Description: C3 deposition assay, human serum on mannan-coated plates. It counts as biochemical. Particulars: average IC50, read-out: Human C3-DEPOSITION SERUM IC50. The procedure:
3. C3 Deposition Assay (Human, Rat, Mouse, Dog, Mini-Pig)
The C3 deposition assay was conducted essentially as described (reference). Multi well plates (Greiner-Nunc 384 Maxi Sorp #464718) were coated over night with Mannan from Saccharomyces cerevisiae (Sigma M7504, 10 μg/mL in 0.05 M carbonate-bicarbonate buffer, pH 9.6) at 4° C. Wells were washed three times with TBS and subsequently incubated for 2 hours with 50 μL of 1% bovine serum albumin (BSA) in Tris-buffered saline (TBS) at 37° C. in order to block non-specific binding. After this step and each of the following incubation steps wells were washed three times with C3 wash buffer (TBS; 0.05% Tween 20; 5 mM CaCl2). […] When appropriately developed the color reaction was stopped by addition of 25 μL of stop solution (Sigma S5814) and quantified on a photometer by measuring absorption at a wavelength of 450 nm. Antibodies were diluted in C3 wash buffer supplemented with 0.5% BSA.

Where a name gives a salt, the structure may show the parent alone. Numbered stars: 1 amine (or outer) side, 2 acyl side, 3 side chain; on linkers, the order of the positions; unused ones are H or OH. Bridge positions count the residues as written; N and C are the ends. Square brackets hold non-standard residues; d marks the D form. Peptide text beside a SMILES is read from it. * marks the point of attachment. X1 = O=C(C1[C@H]2CCCC[C@H]2C[C@H]1C(=O)[*:2])[C@@H]1CCCN1[*:1]; Oic = O=C(O)[C@@H]1C[C@@H]2CCCC[C@@H]2N1; Pen = CC(C)(S)[C@H](N)C(=O)O; X2 = N[C@@H](CN*)C(=O)O; Sar = CNCC(=O)O

T2 sequence (O00187 297-444): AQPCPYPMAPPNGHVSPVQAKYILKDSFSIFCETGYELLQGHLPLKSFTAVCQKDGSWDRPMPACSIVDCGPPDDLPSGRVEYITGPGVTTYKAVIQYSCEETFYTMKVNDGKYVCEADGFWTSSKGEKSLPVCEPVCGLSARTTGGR
T2 sequence (O00187 445-686): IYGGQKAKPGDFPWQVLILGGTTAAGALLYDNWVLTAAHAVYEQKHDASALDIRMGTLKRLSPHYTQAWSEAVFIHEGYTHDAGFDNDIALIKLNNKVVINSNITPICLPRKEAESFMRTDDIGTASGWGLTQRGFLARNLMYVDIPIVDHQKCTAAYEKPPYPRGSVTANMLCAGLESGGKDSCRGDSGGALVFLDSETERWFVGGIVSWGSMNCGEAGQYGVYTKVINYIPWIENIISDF
T1 sequence (Q9JJS8 296-443): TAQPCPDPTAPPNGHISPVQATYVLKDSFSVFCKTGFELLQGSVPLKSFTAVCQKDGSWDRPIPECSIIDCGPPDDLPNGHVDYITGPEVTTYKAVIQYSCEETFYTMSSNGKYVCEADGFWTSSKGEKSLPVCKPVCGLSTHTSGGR
T1 sequence (Q9JJS8 444-685): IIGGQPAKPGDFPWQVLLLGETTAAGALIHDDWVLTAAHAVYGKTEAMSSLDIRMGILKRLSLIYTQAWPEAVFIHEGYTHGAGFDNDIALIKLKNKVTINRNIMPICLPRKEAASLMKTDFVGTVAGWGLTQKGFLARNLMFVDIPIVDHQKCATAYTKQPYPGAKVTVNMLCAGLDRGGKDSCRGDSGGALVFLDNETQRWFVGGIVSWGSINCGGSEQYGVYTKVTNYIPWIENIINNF

Turning to `CC[C@H](C)[C@H](NC(=O)[C@H](C)NC)C(=O)N[C@H]1CSSC(C)(C)[C@@H](C(=O)N[C@H](C(=O)N2CCC[C@H]2C(N)=O)[C@@H](C)CC)NC(=O)[C@H]([C@@H](C)CC)NC(=O)[C@@H]2C[C@@]3(CN2C(=O)[C@@H]2CCCN2C(=O)[C@@H](CC(C)(C)C)NC(=O)[C@H](CO)NC(=O)[C@H](CCCNC(=N)N)NC(=O)[C@H](CO)NC1=O)CC3(F)F` (single isomer, unassigned; enantiomer 1) [Example 443], the IC50 (as a rule, the concentration that inhibits the measured activity by half) at rat MASP2 was found to be 4.7 nM; on human MASP2 it was 74 nM; against human MASP1, 0.78 nM; in the assay on Human C3-[…], 25.2 nM.

Consider `CC[C@H](C)[C@H](NC(=O)CNC)C(=O)N[C@H]1CSSC(C)(C)[C@@H](C(=O)N[C@H](C(=O)N2CCC[C@H]2C(N)=O)[C@@H](C)CC)NC(=O)[C@H]([C@@H](C)CC)NC(=O)[C@@H]2C[C@@H]3CCCC[C@@H]3C2C(=O)[C@@H]2CCCN2C(=O)[C@H](CC(C)C)NC(=O)[C@H](CO)NC(=O)[C@H](CCCNC(=N)N)NC(=O)[C@H](CO)NC1=O` (stereo partly shown) [Example 67, ((N-Me)G)-IC+SRSLP-(Oic)-I-(Pen)+IP-NH2 (HCl Salt)] (H-[Sar]ICSRSL[X1]I[Pen]IP-NH2; disulfide 3-10), for which the IC50 on rat MASP2 amounted to 36 nM; on human MASP2, 43 nM; at human MASP1, 2.2 nM; in the assay on Human C3-[…], 121 nM.

For the compound `CC[C@H](C)[C@H](NC(=O)CNC)C(=O)N[C@H]1CSSC(C)(C)[C@@H](C(=O)N[C@H](C(=O)N2CCC[C@H]2C(N)=O)[C@@H](C)CC)NC(=O)[C@H]([C@@H](C)CC)NC(=O)[C@@H]2C[C@@H]3CCCC[C@@H]3N2C(=O)[C@@H]2CCCN2C(=O)[C@H](CC(C)C)NC(=O)[C@H](CO)NC(=O)[C@H](CCCNC(=N)N)NC(=O)[C@H](CO)NC1=O` [Example 109, ((N-Me)G)-IC+SRSLP-(Oic)-I-(Pen)+IP-NH2] (H-[Sar]ICSRSLP[Oic]I[Pen]IP-NH2; disulfide 3-11), the IC50 came out at 42 nM at rat MASP2, 69.6 nM against human MASP2, 2.9 nM against human MASP1 and 135 nM with Human C3-[…].

Turning to `[2H][C@@H]1[C@H]([2H])CN2C(=O)[C@H](CC(C)C)NC(=O)[C@H](CO)NC(=O)[C@H](CCCNC(=N)N)NC(=O)[C@H](CO)NC(=O)[C@@H](NC(=O)[C@@H](NC(=O)[C@H](C)N)[C@@H](C)CC)CSSC(C)(C)[C@@H](C(=O)N[C@H](C(=O)N3CCC[C@H]3C(=O)N[C@@H](CC(=O)O)C(=O)O)[C@@H](C)CC)NC(=O)[C@H]([C@@H](C)CC)NC(=O)[C@@H]3C[C@@H]4CCCC[C@@H]4N3C(=O)[C@H]12` [Example 142, N-[(1R,2S,6S,9S,12S,15S,18R,23R,26S,28aS,35aS)-18-[(L-alanyl-L-isoleucyl)amino]-26-[(2S)-butan-2-yl]-12-(3-carbamimidamidopropyl)-9,15-bis(hydroxymethyl)-22,22-dimethyl-6-(2-methylpropyl)-5,8,11,14,17,25,28,35-octaoxo(1,2-^2H2)dotriacontahydro-1H,5H,22H-pyrrolo[2′,1′:13,14][1,2,5,8,11,14,17,20,23,26]dithiaoctaazacyclononacosino[11,10-a]indole-23-carbonyl]-L-isoleucyl-L-prolyl-L-aspartic Acid], the IC50 at rat MASP2 came to 17.1 nM; on human MASP2, 126 nM; at human MASP1 it was 2.13 nM; in the assay on Human C3-[…] it was 12.4 nM.

With `CC[C@H](C)[C@H](NC(=O)[C@H](C)N)C(=O)N[C@H]1CSSC[C@@H](C(=O)N[C@H](C(=O)N2CCC[C@H]2C(=O)N[C@@H](CC(=O)O)C(N)=O)[C@@H](C)CC)N(C)C(=O)[C@H]([C@@H](C)CC)NC(=O)[C@@H]2C[C@@H]3CCCC[C@@H]3N2C(=O)[C@@H]2CCCN2C(=O)[C@H](CC(C)C)NC(=O)[C@H](CO)NC(=O)[C@H](CCCNC(=N)N)NC(=O)[C@H](CO)NC1=O` [Example 185, AIC+SRSLP-(Oic)-I-((N-Me)C)+IPD-NH2], the concentration for half-maximal inhibition (IC50) at rat MASP2 was determined as 10.9 nM; at human MASP2, 245 nM; at human MASP1 it was 4.8 nM; with Human C3-[…], 6.74 nM.

Take `CC[C@H](C)[C@H](NC(=O)CNC)C(=O)N[C@H]1CSSC(C)(C)[C@@H](C(=O)N[C@H](C(=O)N2CCC[C@H]2C(=O)N[C@@H](CC(=O)O)C(=O)N[C@@H](CC(=O)O)C(=O)O)[C@@H](C)CC)NC(=O)[C@H]([C@@H](C)CC)NC(=O)[C@@H]2C[C@@H]3CCCC[C@@H]3N2C(=O)[C@@H]2CCCN2C(=O)[C@H](CC(C)C)NC(=O)[C@H](CO)NC(=O)[C@H](CCCNC(=N)N)NC(=O)[C@H](CO)NC1=O` [Example 466, ((N-Me)G)-IC+SRSLP-(Oic)-I-(Pen)+IPDD-OH] (H-[Sar]ICSRSLP[Oic]I[Pen]IPDD-OH; disulfide 3-11): the IC50 was determined as 72 nM at rat MASP2, 40 nM against human MASP2, 0.72 nM against human MASP1 and 71.6 nM with Human C3-[…].

Consider `CC[C@H](C)[C@H](NC(=O)CNC)C(=O)N[C@H]1CSSC(C)(C)[C@@H](C(=O)N[C@H](C(=O)N2CCC[C@H]2C(=O)NC[C@H](N)C(=O)O)[C@@H](C)CC)NC(=O)[C@H]([C@@H](C)CC)NC(=O)[C@@H]2C[C@@H]3CCCC[C@@H]3N2C(=O)[C@@H]2CCCN2C(=O)[C@H](CC(C)C)NC(=O)[C@H](CO)NC(=O)[C@H](CCCNC(=N)N)NC(=O)[C@H](CO)NC1=O` [Example 467] (H-[Sar]ICSRSLP[Oic]I[Pen]IP-X2; disulfide 3-11), for which the IC50 at rat MASP2 came to 70 nM; against human MASP2, 55 nM; on human MASP1, 6.6 nM; in the assay on Human C3-[…], 41.5 nM.
